The values below come from US10183918B2, “Oxa-azaspiro compounds having activity against pain” (LABORATORIOS DEL DR. ESTEVE S.A., priority 2015, dated 2019).

In this assay the target is T1, human σ1 receptor (Homo sapiens, UniProt Q99720).
T1 construct: expressed in transfected cells; host or cells: HEK-293 (membranes)
Description: Human σ1 receptor radioligand assay. The following applies: transfected HEK-293 membranes, 5 nM [3H](+)-pentazocine as radioligand. The assay is classed as binding. The protocol:
Human σ1 Receptor Radioligand Assay
To investigate binding properties of test compounds to human σ1 receptor, transfected HEK-293 membranes and [^3H](+)-pentazocine (Perkin Elmer, NET-1056), as the radioligand, were used. The assay was carried out with 7 μg of membrane suspension, 5 nM of [^3H](+)-pentazocine in either absence or presence of either buffer or 10 μM Haloperidol for total and non-specific binding, respectively. Binding buffer contained Tris-HCl 50 mM at pH 8. Plates were incubated at 37° C. for 120 minutes. After the incubation period, the reaction mix was then transferred to Multiscreen HTS, FC plates (Millipore), filtered and plates were washed 3 times with ice-cold 10 mM Tris-HCL (pH7.4). Filters were dried and counted at approximately 40% efficiency in a MicroBeta scintillation counter (Perkin-Elmer) using EcoScint liquid scintillation cocktail

T1 sequence (Q99720 whole entry): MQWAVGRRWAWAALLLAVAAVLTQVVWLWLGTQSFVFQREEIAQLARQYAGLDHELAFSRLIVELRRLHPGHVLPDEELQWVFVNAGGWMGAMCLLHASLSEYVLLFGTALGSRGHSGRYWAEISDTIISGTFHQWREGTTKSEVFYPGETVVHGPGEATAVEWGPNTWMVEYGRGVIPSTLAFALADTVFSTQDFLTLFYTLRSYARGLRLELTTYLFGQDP

The term Ki denotes a measure of affinity in units of concentration, obtained from inhibition or displacement. Higher therefore signals weaker binding. `CCN1C[C@]2(CC[C@H](N(C)CCC(C)C)CC2)OC2(CC2)C1=O` [Example 28, (5s,8s)-12-ethyl-8-[rnethyl(3-methylbutyl)amino]-4-oxa-12-azadispiro[2.1.5.3]tridecan-13-one] displayed a Ki below 500 nM.
For the molecule `CCN1C[C@]2(CC[C@H](N(C)Cc3ccccc3)CC2)OCC1=O` [Example 41, (6s,9s)-9-(benzyl(methyl)amino)-4-ethyl-1-oxa-4-azaspiro[5.5]undecan-3-one], the Ki was below 500 nM.
To `CC(C)CN(C)[C@H]1CC[C@@]2(CC1)CN(C(=O)c1ccccc1)CC1(CC1)O2` [Example 60, ((5s,8s)-8-[isobutyl(methyl)amino]-4-oxa-12-azadispiro[2.1.5.3]tridecan-12-yl)(phenyl)methanone] belongs below 500 nM.
To `CCN1CC2(CC2)O[C@]2(CC[C@H](N(C)CCC(C)C)CC2)C1` [Example 35, (5r,8r)-12-ethyl-N-methyl-N-(3-methylbutyl)-4-oxa-12-azadispiro[2.1.5.3]tridecan-8-amine] belongs below 500 nM.
To `CN(CCc1ccccc1)[C@H]1CC[C@@]2(CC1)CN(c1ccccc1)C(=O)C1(CC1)O2` [Example 9, (5s,8s)-8-(methyl(2-phenylethyl)amino]-12-phenyl-4-oxa-12-azadispiro[2.1.5.3]tridecan-13-one] belongs below 500 nM; to `O=C1N(c2ccccc2)C[C@]2(CC[C@@H](NCCc3ccccc3)CC2)OC12CC2` [Example 13], at least 500 nM; to `CN(CCc1ccccc1)[C@H]1CC[C@@]2(CC1)CN(C(=O)c1ccccc1)CC1(CC1)O2` [Example 58, ((5s,8s)-8-[methyl(phenethyl)amino]-4-oxa-12-azadispiro[2.1.5.3]tridecan-12-yl)(phenyl)methanone], below 500 nM.
The molecule `CCN1C[C@]2(CC[C@@H](N(C)CCC(C)C)CC2)OC(C)(C)C1=O` [Example 57, (6r,9r)-4-ethyl-9-(isopentyl(methyl)amino)-2,2-dimethyl-1-oxa-4-azaspiro[5.5]undecan-3-one] showed a Ki below 100 nM.
The value for `CCN1C[C@]2(CC[C@@H](NC)CC2)OC(C)(C)C1=O` [Example 49, (6r,9r)-4-ethyl-2,2-dimethyl-9-(methylamino)-1-oxa-4-azaspiro[5.5]undecan-3-one acetate] was at least 500 nM; that for `CCN1C[C@]2(CC[C@H](N(C)CC(C)C)CC2)OCC1=O` [Example 38, (6s,9s)-4-ethyl-9-(isobutyl(methyl)amino)-1-oxa-4-azaspiro[5.5]undecan-3-one] was below 500 nM; that for `CCN1CC(C)(C)O[C@]2(CC[C@@H](N(C)CC(C)C)CC2)C1` [Example 65, (6s,9s)-4-ethyl-N-isobutyl-N,2,2-trimethyl-1-oxa-4-azaspiro[5.5]undecan-9-amine] was below 100 nM.
The value for `CCN1CC(C)(C)O[C@]2(CC[C@@H](N(C)Cc3ccccc3)CC2)C1` [Example 62, (6s,9s)-N-benzyl-4-ethyl-N,2,2-trimethyl-1-oxa-4-azaspiro[5.5]undecan-9-amine] was below 100 nM.
The value for `CCN1C[C@]2(CC[C@H](N(C)CC(C)C)CC2)OC2(CC2)C1=O` [Example 33, (5s,8s)-12-ethyl-8-[methyl(2-methylpropyl)amino]-4-oxa-12-azadispiro[2.1.5.3]tridecan-13-one] was below 500 nM; that for `CCN1C[C@]2(CC[C@@H](NC)CC2)OC2(CC2)C1=O` [Example 21, (5r,8r)-12-ethyl-8-(methylamino)-4-oxa-12-azadispiro[2.1.5.3]tridecan-13-one acetate] was at least 500 nM; that for `CCN1C[C@]2(CC[C@H](N(C)Cc3ccccc3)CC2)OC2(CC2)C1=O` [Example 5, (5s,8s)-8-[benzyl(methyl)amino]-12-ethyl-4-oxa-12-azadispiro[2.1.5.3]tridecan-13-one] was below 100 nM.
In turn, `CC(C)CCN(C)[C@H]1CC[C@@]2(CC1)CN(c1ccccc1)CC1(CC1)O2` [Example 31, (5s,8s)-N-methyl-N-(3-methylbutyl)-12-phenyl-4-oxa-12-azadispiro[2.1.5.3]tridecan-8-amine] showed a Ki below 100 nM.
With `CCN1C[C@]2(CC[C@H](N(C)Cc3ccccc3)CC2)OC(C)(C)C1=O` [Example 43, (6s,9s)-9-(benzyl(methyl)amino)-4-ethyl-2,2-dimethyl-1-oxa-4-azaspiro[5.5]undecan-3-one], the Ki was below 100 nM.
Take `CC(C)CCN(C)[C@H]1CC[C@]2(CC1)CN(c1ccccc1)C(=O)C1(CC1)O2` [Example 30, (5r,8r)-8-[methyl(3-methylbutyl)amino]-12-phenyl-4-oxa-12-azadispiro[2.1.5.3]tridecan-13-one]: the Ki is below 100 nM.
To `CN(Cc1ccccc1)[C@H]1CC[C@]2(CC1)CN(c1ccccc1)CC1(CC1)O2` [Example 20, (5r,8r)-N-benzyl-N-methyl-12-phenyl-4-oxa-12-azadispiro[2.1.53]tridecan-8-amine] belongs below 100 nM; to `O=C1N(c2ccccc2)C[C@]2(CC[C@H](NCc3ccccc3)CC2)OC12CC2` [Example 10, (5s,8s)-8-(benzylamino)-12-phenyl-4-oxa-12-azadispiro[2.1.5.3]tridecan-13-one], at least 500 nM; to `CCN1CC(C)(C)O[C@]2(CC[C@@H](N(C)CCc3ccccc3)CC2)C1` [Example 66, (6s,9s)-4-ethyl-N,2,2-trimethyl-N-phenethyl-1-oxa-4-azaspiro[5.5]undecan-9-amine], below 100 nM.
To `CCN1C[C@]2(CC[C@H](N(C)CCc3ccccc3)CC2)OC(C)(C)C1=O` [Example 55, (6s,9s)-4-ethyl-2,2-dimethyl-9-(methyl(phenethyl)amino)-1-oxa-4-azaspiro[5.5]undecan-3-one] belongs below 100 nM; to `CCN1C[C@]2(CC[C@H](N(C)CCc3ccccc3)CC2)OC2(CC2)C1=O` [Example 3, (5s,8s)-12-ethyl-8[methyl(2-phenylethyl)amino]-4-oxa-12-azadispiro[2.1.5.3]tridecan-13-one], below 100 nM.
`CN(Cc1ccccc1)[C@H]1CC[C@@]2(CC1)CN(c1ccccc1)CC1(CC1)O2` [Example 19, (5s,8s)-N-benzyl-N-methyl-12-phenyl-4-oxa-12-azadispiro[2.1.5.3]tridecan-8-amine]: the Ki was below 100 nM.
`CN(Cc1ccccc1)[C@H]1CC[C@]2(CC1)CN(c1ccccc1)C(=O)C1(CC1)O2` [Example 14, (5r,8r)-8-[benzyl(methyl)amino]-12-phenyl-4-oxa-12-azadispiro[2.1.5.3]tridecan-13-one] registered a Ki below 500 nM.
`CCN1C[C@]2(CC[C@@H](NCCc3ccccc3)CC2)OC2(CC2)C1=O` [Example 7, (5r,8r)-12-ethyl-8-[(2-phenylethyl)amino]-4-oxa-12-azadispiro[2.1.5.3]tridecan-13-one]: the Ki was below 100 nM.
The molecule `CCN1C[C@]2(CC[C@H](NCc3ccccc3)CC2)OCC1=O` [Example 36, (6s,9s)-9-(benzylamino)-4-ethyl-1-oxa-4-azaspiro[5.5]undecan-3-one] yielded a Ki of at least 500 nM.
The value for `CCN1C[C@]2(CC[C@H](NC)CC2)OCC1=O` [Example 47, (6s,9s)-4-ethyl-9-(methylamino)-1-oxa-4-azaspiro[5.5]undecan-3-one acetate] was at least 500 nM.
To `CCN1C[C@]2(CC[C@H](NC)CC2)OC2(CC2)C1=O` [Example 22, (5s,8s)-12-ethyl-8-(methylamino)-4-oxa-12-azadispiro[2.1.5.3]tridecan-13-one acetate] belongs at least 500 nM.
For `CCN1CC2(CC2)O[C@]2(CC[C@@H](N(C)Cc3ccccc3)CC2)C1` [Example 17, (5s,8s)-N-benzyl-12-ethyl-N-methyl-4-oxa-12-azadispiro[2.1.5.3]tridecan-8-amine], the Ki is below 500 nM.
To `CCN1C[C@]2(CC[C@H](N(C)CC(C)C)CC2)OC(C)(C)C1=O` [Example 54, (6s,9s)-4-ethyl-9-(isobutyl(methyl)amino)-2,2-dimethyl-1-oxa-4-azaspiro[5.5]undecan-3-one] belongs below 500 nM.
For `CC(C)CN(C)[C@H]1CC[C@@]2(CC1)CN(Cc1ccccc1)CC1(CC1)O2` [Example 68, (5s,8s)-12-benzyl-N-isobutyl-N-methyl-4-oxa-12-azadispiro[2.1.5.3]tridecan-8-amine], the inhibition constant Ki is below 100 nM.
With `CN[C@H]1CC[C@@]2(CC1)CN(c1ccccc1)CC1(CC1)O2` [Example 25, (5s,8s)-N-methyl-12-phenyl-4-oxa-12-azadispiro[2.1.5.3]tridecan-8-amine acetate], the Ki is at least 500 nM.
To `CCN1C[C@]2(CC[C@@H](NCc3ccccc3)CC2)OC(C)(C)C1=O` [Example 40, (6r,9r)-9-(benzylamino)-4-ethyl-2,2-dimethyl-1-oxa-4-azaspiro[5.5]undecan-3-one] belongs at least 500 nM; to `CN[C@H]1CC[C@@]2(CC1)CN(C(=O)c1ccccc1)CC1(CC1)O2` [Example 50, ((5s,8s)-8-(methylamino)-4-oxa-12-azadispiro[2.1.5.3]tridecan-12-yl)(phenyl)methanone acetate], at least 500 nM; to `CN(CCc1ccccc1)[C@H]1CC[C@]2(CC1)CN(c1ccccc1)CC1(CC1)O2` [Example 34, (5r,8r)-N-methyl-12-phenyl-N-(2-phenylethyl)-4-oxa-12-azadispiro[2.1.5.3]tridecan-8-amine], below 100 nM.
`CN(Cc1ccccc1)[C@H]1CC[C@]2(CC1)CN(C(=O)c1ccccc1)CC1(CC1)O2` [Example 46, ((5r,8r)-8-[Benzyl(methyl)amino]-4-oxa-12-azadispiro[2.1.5.3]tridecan-12-yl)(phenyl)methanone] returned an inhibition constant (Ki) below 500 nM.
